Source: patent US7579336B2, “Pharmaceutical composition comprising temozolomide ester” (Tian Jin Tasly Group Co., Ltd., priority 2004, dated 2009)
≈ marks a conversion by molar mass, not a printed value. Like-named read-outs stand apart in the source and are kept apart here. Marks after values point to notes of the source that are not given here.

Experiments:
[1] = studies published in WO0057867; cited from earlier work
[2] = test system: BGC-823(human gastric carcinoma cells); assay: MTT reduction assay, killing tumor cells; format: cell-based; conditions: BGC-823 cells, four days culture with drug
Description: (§1) The experiment was carried out for methyl TMZ-8-carboxylate, butyl TMZ-8-carboxylate, n-hexyl TMZ-8-carboxylate, and TMZ acid which had been known as an active compound against carcinoma, and used fluorouracil injection (10 ml:0.25 g, purchased from Xudong Pharmaceutical Co. Ltd, the batch number was 000612) as the drug for the positive control. Cancer cell strains used in experiments included HCT-8(human colon carcinoma cells), A549 (human lung carcinoma cells), MCF-7(human breast carcinoma cells), Bel7402 (human liver carcinoma cells), BGC-823(human gastric carcinoma cells) and MV3 (human melanoma cells).
(§2) TMZ acid is white powder; Methyl TMZ-8-carboxylate, butyl TMZ-8-carboxylate and n-hexyl TMZ-8-carboxylate, white scaly crystals, manufactured by the method described in Example 2; Fluorouracil injection (10 ml: 0.25 g): as drug for the positive control, manufactured by Xudong Pharmaceutical Co. Ltd, the batch number 000612; RPMI: produced by GIBCO; Calf serum: manufactured by Sijiqing bio-engineer material Co. Ltd, Hangzhou; and MTT: produced by Bebco.
(§3) All cancer cell strains of HCT-8, A549, MCF-7, Bel-7402, BGC-823, MV3 and B16 was fostered and transferred of culture by Institute of Materia Medica, Chinese Academy of Medical Sciences and Peking Union Medical College.
(§4) Tetrazolium salt [3-(4,5-dimethylthiazol-2-yl)-2,5-diphenyl-tetrazolium bromide, MTT] reduction assay was used. All the well-grown carcinoma cells were collected, prepared intol 1×10^4/ml cell suspension with the RPMI 1640 culture solution containing 10% calf serum, and inoculated in 96-well culture plate, with 100 uL per well (containing 1000 cancer cells). After 24 hours of culture in 5% CO2 thermos incubator at temperature of 37° C. the drugs were added. Blank control group was established and the drug for the positive control was Fluorouracil. The tested drugs were divided into five groups at different concentrations, each concentration was tested for three times parallelly, and placed in 5% CO2 thermos incubator at temperature of 37° C. to culture for four days. The culture solution was discarded and 100 uL of MTT solution (0.4 mg/ml, prepared with RPMI 1640) was added per well to continue to culture for four hours at temperature of 37° C. The supernate was discarded and 150 uL of DMSO was added to dissolve Fomazan granules. After slight agitation, the OD value was measured with BIORAD 550 enzyme labeling instrument at the measuring wavelength of 540 nm and the reference wavelength of 450 nm.
(§5) Data of cell inhibiting rate was then plotted vs. the concentration of drugs to obtain the dose-reaction curve, by which 50% inhibitory concentration IC50 was calculated (see Table 1 and Table 2).

[3] = test system: MCF-7(human breast carcinoma cells); assay: MTT reduction assay, killing tumor cells; format: cell-based; conditions: MCF-7 cells, four days culture with drug
Description: as §1, §2, §3, §4, §5

[4] = test system: MV3 (human melanoma cells); assay: MTT reduction assay, killing tumor cells; format: cell-based; conditions: four days culture with drug
Description: as §1, §2, §3, §4, §5

[5] = test system: HCT-8, A549, MCF-7, Bel7402, BGC-823 and MV3 cancer cell strains; assay: MTT reduction assay, summary over the selected cell strains; format: cell-based; conditions: Homo sapiens; summary of Table 1 over all selected cell strains; read-out: IC50 ranges for the selected cell strains
Description: as §1, §4, §5

[6] = test system: xenotransplanted human melanoma MV3; assay: Topical administration, growth of xenotransplanted human melanoma in MV3 nude mouse; format: in vivo, nude mouse of BALB/c-nu
Description: Hexyl TMZ-8-carboxylate was selected as the representative to investigate the influence of TMZ-8-carboxylate derivatives on the growth of xenotransplanted human melanoma in MV3 nude mouse.
Hexyl TMZ-8-carboxylate was dissolved in DMSO to obtain 50 mg/ml solution. Human melanoma was xenotransplanted to nude mouse of BALB/c-nu to allow it to grow. Until the tumor expanded to the volume of 100˜300 mm^3, all animals were divided into two groups in accordance with the size of tumor, eight mice per group.
Of these two groups, one was the treatment group in therapeutical treatment by spreading the solution of hexyl TMZ-8-carboxylate; another was the control group where the tumor grows naturally.
In the treatment group, the drug was administered by spreading drug at the position of tumor and surrounding area (2 cm×2 cm) twice a day (once on Saturday and Sunday). Every time, when the solution was dried, administration was repeated for 1 to 2 times. The daily average dose of hexyl TMZ-8-carboxylate administered for a mouse totally was about 20 mg.
The volume of tumor in mouse was measured twice a week, so as to observe and record their growth dynamically. Until the tumor of the control group grew up to a certain volume, all the mice were killed the tumors were stripped off and weighed, growth inhibition rate was calculated. Tumor proliferation (T/C(%)) was calculated using relative volume of tumor in two groups.
Tumor volume (TV) was calculated by the equation as follows: Length×width^2÷2
The relative tumor volume is calculated by the equation as follows: Vt/Vo
Wherein the Vo is the TV measured at the time when the animals were raised in separate cages, and […] is the TV measured each time after.
The t-test was used to compare the statistical difference between two groups in many indexes such as tumor weight, TV and RTV. The relative tumor proliferation rate (T/C(%))was used as the index of bioactivity for anti tumor, which was calculated as follows: […]
The effect was evaluated by statistical analysis. The effect was regarded as invalid when T/C (%) is more than 60, and as effective when T/C (%) is equal to or less than 60 and p<0.05.

[7] = Stability of TMZ-8-carboxylate derivatives in alcohols (HPLC); format: physicochemical; conditions: room temperature, sampled up to 32 months
Description: n-hexyl TMZ-8-carboxylate was weighed accurately and prepared into 1% of solution by diluting respectively with methanol, ethanol, isopropanol and tert-butyl alcohol. Three sample solutions (20 ml) were taken out in each of above solutions and placed into 50 ml volumetric brown glass bottle, sealed and allowed to stand at room temperature. At time of 1, 4, 8, 12, 16, 20, 24, 28, 32 months after beginning, the solutions were sampled and determined the concentration of n-hexyl TMZ-8-carboxylate by HPLC, to calculate the average value of three parallel solutions and plotted.

[8] = Stability of TMZ-8-carboxylate in media of different pH (HPLC); format: physicochemical; conditions: 1% aqueous solution, sampled up to 32 months
Description: The sodium hydroxide and citric acid were accurately weighed and respectively diluted with water to form the solution with the pH value of 7.5, 7.0, 6.5, 6.0 and 5.5. n-Hexyl TMZ-8-carboxylate was accurately weighed, and dissolved into said aqueous solutions with different pH values to form a series of 1% solutions of n-hexyl TMZ-8-carboxylate. Three sample solutions (20 ml) were taken out in each of above solutions and placed into 50 ml volumetric brown glass bottle, sealed and allowed to stand at room temperature. At 1, 4, 8, 12, 16, 20, 24, 28, 32 months after beginning, the solutions were sampled and determined the concentration of n-hexyl TMZ-8-carboxylate by HPLC, to calculate the average of three parallel solutions and plotted.

[9] = test system: A549 (human lung carcinoma cells); assay: MTT reduction assay, killing tumor cells; format: cell-based; conditions: four days culture with drug
Description: as §1, §2, §3, §4, §5

[10] = test system: Bel7402 (human liver carcinoma cells); assay: MTT reduction assay, killing tumor cells; format: cell-based; conditions: Bel-7402 cells, four days culture with drug
Description: as §1, §2, §3, §4, §5

[11] = test system: HCT-8(human colon carcinoma cells); assay: MTT reduction assay, killing tumor cells; format: cell-based; conditions: HCT-8 cells, four days culture with drug
Description: as §1, §2, §3, §4, §5

[12] = Homo sapiens, 96 h, read-out: IC50
[13] = Homo sapiens, MCF7, 96 h, read-out: IC50
[14] = Homo sapiens, MV-3, 96 h, read-out: IC50
[15] = 20 mg/day/mouse spread on tumor, beginning of test, X ± SD

## Cn1nnc2c(C(N)=O)ncn2c1=O [TMZ, Temozolomide]
[1]
  Permeation of artificial skin (silicon membrane), rat skin and human skin: inability to permeate

## CCCCCCOC(=O)c1ncn2c(=O)n(C)nnc12 [n-hexyl TMZ-8-carboxylate, n-hexyl 3,4-dihydro-3-methyl-4-oxoimidazo[5,1-d]-1,2,3,5-tetrazine-8-carboxylate]
[2]; [12]
  IC50: > 19.5 µg/mL
[3]; [13]
  IC50: 20 µg/mL (≈ 71.6 µM)
[4]; [14]
  IC50: 8.84 µg/mL (≈ 31.6 µM)
[5]
  IC50: 10 to 30 µg/mL (≈ 35.8 to 107 µM)
[6]; 20 mg daily externally administered per mouse, human melanoma MV3
  Effect on the growth of carcinomas in the mice: significant inhibiting effects
[6]; [15]
  Body weight(g) Beginning test: 24.0 ± 1.48 g
  Tumor volume (mm^3) Beginning test: 115 ± 36 mm^3
[6]; 20 mg/day/mouse spread on tumor, end of test, X ± SD
  Body weight(g) End test: 25.6 ± 3.64 g
[6]; 20 mg/day/mouse spread on tumor, end of test, X ± SD, P < 0.05 vs control
  Tumor volume (mm^3) End test: 635 ± 545.1* mm^3
[6]; 20 mg/day/mouse topical, end of test, X ± SD
  Weight of tumor: 0.45 ± 0.335 g
[6]; growth inhibition rate from tumor weight, 20 mg/day/mouse topical
  Inhibiting rate (%): 83.2%
[6]; relative tumor proliferation rate, 20 mg/day/mouse topical, effective if <= 60 and p<0.05
  T/C(%): 33.7%
[6]; relative tumor volume Vt/Vo, 20 mg/day/mouse topical
  RTV: 3.25 ± 1.85
[7]; 1% solution in ethanol
  Stability in ethanol: rapidly decomposes
[7]; 1% solution in isopropanol
  Stability in isopropanol: keeps stable
[7]; 1% solution in methanol
  Stability in methanol: rapidly decomposes
[7]; 1% solution in tert-butyl alcohol
  Stability in tert-butyl alcohol: keeps stable
[8]; pH 6.5, 6.0 and 5.5, room temperature
  Stability in acidic (pH<7.0) medium: keep relatively stable
[8]; pH7.0, room temperature
  Stability in neutral (pH7.0) medium: rapidly decomposes
[8]; pH7.5, room temperature
  Stability in weakly alkaline (pH7.5) medium: rapidly decomposes

## O=c1[nH]cc(F)c(=O)[nH]1 [Fluorouracil, reference compound]
[4]; [14]
  IC50: 0.427 µg/mL (≈ 3.28 µM)

## Cn1nnc2c(C(=O)O)ncn2c1=O [TMZ acid, reference compound]
[9]
  IC50: >19.5 µg/mL
[2]
  IC50: >19.5 µg/mL
[10]
  IC50: 16.957 µg/mL (≈ 86.9 µM)
[11]
  IC50: 18.525 µg/mL (≈ 94.9 µM)
[3]
  IC50: 14.911 µg/mL (≈ 76.4 µM)
[4]
  IC50: 14.625 µg/mL (≈ 74.9 µM)

## COC(=O)c1ncn2c(=O)n(C)nnc12 [methyl TMZ-8-carboxylate, Methyl 3,4-dihydro-3-methyl-4-oxoimidazo[5,1-d]-1,2,3,5-tetrazine-8-carboxylate]
[9]; [12]
  IC50: 27 µg/mL (≈ 129 µM)
[2]; [12]
  IC50: > 19.5 µg/mL
[10]; [12]
  IC50: 25.3 µg/mL (≈ 121 µM)
[11]; [12]
  IC50: 28.4 µg/mL (≈ 136 µM)
[3]; [13]
  IC50: 17.7 µg/mL (≈ 84.5 µM)
[4]; [14]
  IC50: 8.83 µg/mL (≈ 42.2 µM)
[5]
  IC50: 10 to 30 µg/mL (≈ 47.8 to 143 µM)

## CCCCOC(=O)c1ncn2c(=O)n(C)nnc12 [butyl TMZ-8-carboxylate, Butyl 3,4-dihydro-3-methyl-4-oxoimidazo[5,1-d]-1,2,3,5-tetrazine-8-carboxylate]
[9]; [12]
  IC50: 25.3 µg/mL (≈ 101 µM)
[2]; [12]
  IC50: > 19.5 µg/mL
[10]; [12]
  IC50: 24.4 µg/mL (≈ 97 µM)
[11]; [12]
  IC50: 27.4 µg/mL (≈ 109 µM)
[3]; [13]
  IC50: 16.6 µg/mL (≈ 65.9 µM)
[4]; [14]
  IC50: 7.57 µg/mL (≈ 30.1 µM)
[5]
  IC50: 10 to 30 µg/mL (≈ 39.8 to 119 µM)
